These results are taken from article PMC4457826 (PLoS Pathogens, 2015).

For assay [1], the system named is USP7-NTD. The experiment in a line: Fluorescence polarization, USP7-NTD. The class given is binding, human. The conditions noted are these: FITC peptide 40 nM, protein up to 200 μM. On the procedure: (§1) USP7 proteins were titrated (0 to 200 μM) with N-terminally labeled FITC-ICP0, FITC-GMPS or FITC-UHRF1 peptides (synthesized by CanPeptide, 40 nM) in 0.01% Triton X-100, 150 mM NaCl, 20 mM Tris pH 7.5. Polarized emission of FITC-ICP0 or FITC-GMPS or FITC-UHRF1 was measured with a Synergy H4 Hybrid Multi-Mode Microplate Reader (BioTek) with the excitation wavelength set at 485 nm and the emission wavelength set at 528 nm. The competition binding assay was performed with a fixed USP7-CTD concentration (8 μM), 40nM FITC-UHRF1 and increasing concentrations of unlabeled ICP0 (0 to 2500 μM). The polarization data were plotted and analyzed using GraphPad Prism version 5.0 to calculate dissociation (KD) and inhibition (Ki) constants. These assays were repeated at least 3 times and used to calculate the average and standard deviation.
For orientation: Fluorescence polarisation rises when a labelled molecule tumbles more slowly, as on binding a larger partner.

Assay [2] relates to USP7 Ubl345. Nature of the assay: Fluorescence polarization, Ubl345. The class given is binding, human. The settings on record: FITC peptide 40 nM, protein up to 200 μM. The protocol: as §1
Assay [3] concerns the target T1, USP7-CTD (Homo sapiens, UniProt Q93009).
T1 construct: USP7-CTD (535–1102); His tag (inferred from nickel-NTA purification; vector p15TV-L); made in house; host or cells: E. coli BL21(DE3)mgk
The experiment in a line: Competition binding assay (fluorescence polarization), FITC-UHRF1 displacement. The settings on record: USP7-CTD 8 μM, FITC-UHRF1 40 nM, unlabeled ICP0 0 to 2500 μM. The protocol: Given the importance of the KxxxK motif in ICP0 and GMPS for USP7-CTD binding, we examined the UHRF1 sequence for such a motif and identified ^642[…]^649 (Fig 4A). […] The saturation curve is shown in S3 Fig. A competitive binding assay was used to establish whether the UHRF1 and ICP0 peptides were competing for the same binding site on Ubl2. This assay was performed by measuring the fluorescence polarization with increasing amounts of unlabeled ICP0 while keeping both USP7-CTD and FITC-UHRF1 constant. […] This competition was confirmed by the competition binding experiment shown in S3 Fig.
as §1, with “These assays were repeated at least 3 times and used to calculate the average and standard deviation.” left out

T1 sequence (Q93009 535-1102): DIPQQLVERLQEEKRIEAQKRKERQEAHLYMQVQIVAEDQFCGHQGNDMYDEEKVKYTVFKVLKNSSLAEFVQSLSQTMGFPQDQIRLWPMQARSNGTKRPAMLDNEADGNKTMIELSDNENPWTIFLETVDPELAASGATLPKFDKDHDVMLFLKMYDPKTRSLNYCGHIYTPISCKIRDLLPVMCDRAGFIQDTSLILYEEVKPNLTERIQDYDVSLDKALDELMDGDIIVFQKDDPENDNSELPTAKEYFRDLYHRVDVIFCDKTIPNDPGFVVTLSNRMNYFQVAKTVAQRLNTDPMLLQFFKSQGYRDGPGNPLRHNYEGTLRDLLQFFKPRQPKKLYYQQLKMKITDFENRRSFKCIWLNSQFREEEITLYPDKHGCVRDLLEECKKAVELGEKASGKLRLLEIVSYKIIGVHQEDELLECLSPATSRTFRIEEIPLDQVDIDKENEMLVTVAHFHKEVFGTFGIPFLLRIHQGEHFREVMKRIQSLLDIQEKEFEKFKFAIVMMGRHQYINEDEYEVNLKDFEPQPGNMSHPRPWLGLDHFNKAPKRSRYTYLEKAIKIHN

Consider `C[C@H](NC(=O)[C@H](CS)NC(=O)[C@H](CCCCN)NC(=O)[C@H](CCCNC(=N)N)NC(=O)[C@@H]1CCCN1C(=O)CNC(=O)[C@H](CCCNC(=N)N)NC(=O)[C@@H]1CCCN1)C(=O)N[C@@H](CCCNC(=N)N)C(=O)N[C@@H](CCCCN)C(=O)N[C@H](C(=O)N[C@@H](CCCNC(=N)N)C(=O)N[C@@H](Cc1c[nH]cn1)C(=O)O)[C@@H](C)O` [ICP0 peptide], for which the “polarization with USP7-NTD” value in assay [1] is given as “did not show any polarization”. The “polarization with Ubl345” value in assay [2] is listed as “did not show any polarization”. In assay [3], the “competition with UHRF1 peptide for binding to Ubl2” value was “readily competes with the UHRF1 peptide for binding to Ubl2”.
